# Test results from patent publication US10538555B2, “Macrocyclic inhibitors of the PD-1/PD-L1 and CD80(B7-1)/PD-L1 protein/protein interactions” (BRISTOL-MYERS SQUIBB COMPANY, priority 2014, dated 2020).
# Where a SMILES comes first, the peptide text is derived from it. Bridges are numbered along the chain shown (N, C = ends). [ ]: non-standard residue; d: D form. Trp(1-CH2COOH) = N[C@@H](Cc1cn(CC(=O)O)c2ccccc12)C(=O)O; Bta = N[C@@H](Cc1csc2ccccc12)C(=O)O; Hyp = O=C(O)[C@@H]1C[C@@H](O)CN1; NMeNle = CCCC[C@H](NC)C(=O)O; NMeA = CN[C@@H](C)C(=O)O; Dab = NCC[C@H](N)C(=O)O; Dap = NC[C@H](N)C(=O)O; Sar = CNCC(=O)O
# Target: T1, Human PD-L1/PD-1 (Homo sapiens, UniProt Q9NZQ7)
# T1 construct: TVMV protease cleavage site (C); made in house; host or cells: HEK293T cells
# Assay: HTRF Human PD-L1/PD-1 binding assay (PD-1-Ig/PD-L1-His)
# Conditions: PD-L1-His 10 nM, PD-1-Ig 20 nM; class symbol; read-out: HTRF Human PD-L1/PD-1 Binding Assay IC50 Range
# Method in brief: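 Inhibitors were preincubated 15 min with human PD-L1(18-239)-His (10 nM final), then PD-1(25-167)-Ig (20 nM final) was added for 15 min in dPBS/0.1% BSA/0.05% Tween-20. Eu-cryptate anti-Ig (1 nM) and APC anti-His (20 nM) were added; 665/620 nm ratio read after 30 min.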
# T1 sequence (Q9NZQ7 with tags, fused parts or gaps): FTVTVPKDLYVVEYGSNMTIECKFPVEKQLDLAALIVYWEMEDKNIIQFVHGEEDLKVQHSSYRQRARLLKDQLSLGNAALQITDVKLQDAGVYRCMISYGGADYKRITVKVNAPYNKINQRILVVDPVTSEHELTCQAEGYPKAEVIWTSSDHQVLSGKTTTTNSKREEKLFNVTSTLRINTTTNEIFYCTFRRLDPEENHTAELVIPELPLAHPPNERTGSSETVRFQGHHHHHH
row,Compound,IC50
1,CCCC[C@H]1C(=O)N(C)[C@@H](CCCC)C(=O)N[C@@H](CCC(=O)O)C(=O)N[C@H](C(=O)NCC(N)=O)CSCC(=O)N[C@@H](Cc2ccc(O)cc2)C(=O)N(C)[C@@H](C)C(=O)N[C@@H](CC(N)=O)C(=O)N2CCC[C@H]2C(=O)N[C@@H](CN)C(=O)N[C@@H](CCC(=O)O)C(=O)N2C[C@H](O)C[C@H]2C(=O)N[C@@H](Cc2c[nH]c3ccccc23)C(=O)N[C@@H](CCN)C(=O)N[C@@H](Cc2c[nH]c3ccccc23)C(=O)N1C [Example 5207] ({CH2CO}-Y[NMeA]NP[Dap]E[Hyp]W[Dab]W[NMeNle][NMeNle]ECG-NH2; thioether N-14),10 to 99.9 nM
2,CCCC[C@H]1C(=O)N(C)[C@@H](CCCC)C(=O)N[C@@H](CCC(=O)O)C(=O)N[C@H](C(=O)NCC(N)=O)CSCC(=O)N[C@@H](Cc2ccc(O)cc2)C(=O)N(C)[C@@H](C)C(=O)N[C@@H](CC(=O)O)C(=O)N2CCC[C@H]2C(=O)N[C@@H](Cc2c[nH]cn2)C(=O)N[C@@H](CCC(N)=O)C(=O)N2C[C@H](O)C[C@H]2C(=O)N[C@@H](Cc2c[nH]c3ccccc23)C(=O)N[C@@H](CCN)C(=O)N[C@@H](Cc2c[nH]c3ccccc23)C(=O)N1C [Example 5218] ({CH2CO}-Y[NMeA]DPHQ[Hyp]W[Dab]W[NMeNle][NMeNle]ECG-NH2; thioether N-14),10 to 99.9 nM
3,CCCC[C@H]1C(=O)N(C)[C@@H](CCCC)C(=O)N[C@@H](CN)C(=O)N[C@H](C(=O)NCC(N)=O)CSCC(=O)N[C@@H](Cc2ccc(O)cc2)C(=O)N(C)[C@@H](C)C(=O)N[C@@H](CC(=O)O)C(=O)N2CCC[C@H]2C(=O)N[C@@H](Cc2c[nH]cn2)C(=O)N[C@@H](CCC(=O)O)C(=O)N2C[C@H](O)C[C@H]2C(=O)N[C@@H](Cc2c[nH]c3ccccc23)C(=O)N[C@@H](CCN)C(=O)N[C@@H](Cc2cn(CC(=O)O)c3ccccc23)C(=O)N1C [Example 5220],100 to 990 nM
4,CCCC[C@H]1C(=O)N(C)[C@@H](CCCC)C(=O)N[C@@H](CC(C)C)C(=O)N[C@H](C(=O)NCC(N)=O)CSCC(=O)N[C@@H](Cc2ccc(O)cc2)C(=O)N(C)[C@@H](C)C(=O)N[C@@H](CC(N)=O)C(=O)N(C)CC(=O)N[C@@H](Cc2cnc[nH]2)C(=O)N[C@@H](CCC(=O)O)C(=O)N2C[C@H](O)C[C@H]2C(=O)N[C@@H](Cc2c[nH]c3ccccc23)C(=O)N[C@@H](CCN)C(=O)N[C@@H](Cc2csc3ccccc23)C(=O)N1C [Example 5225] ({CH2CO}-Y[NMeA]N[Sar]HE[Hyp]W[Dab][Bta][NMeNle][NMeNle]LCG-NH2; thioether N-14),1 to 9.9 nM
5,CCCC[C@H]1C(=O)N(C)[C@@H](CCCC)C(=O)N[C@@H](CN)C(=O)N[C@H](C(=O)NCC(N)=O)CSCC(=O)N[C@@H](Cc2ccc(O)cc2)C(=O)N(C)[C@@H](C)C(=O)N[C@@H](CC(=O)O)C(=O)N2CCC[C@H]2C(=O)N[C@@H](CN)C(=O)N[C@@H](CCC(N)=O)C(=O)N2C[C@H](O)C[C@H]2C(=O)N[C@@H](Cc2c[nH]c3ccccc23)C(=O)N[C@@H](CO)C(=O)N[C@@H](Cc2cn(CC(=O)O)c3ccccc23)C(=O)N1C [Example 5226] ({CH2CO}-Y[NMeA]DP[Dap]Q[Hyp]WS[Trp(1-CH2COOH)][NMeNle][NMeNle][Dap]CG-NH2; thioether N-14),1 to 9.9 nM

# Next, values leading:
row,IC50,Compound
1,1 to 9.9 nM,CCCC[C@H]1C(=O)N(C)[C@@H](CCCC)C(=O)N[C@@H](CCC(=O)O)C(=O)N[C@H](C(=O)NCC(N)=O)CSCC(=O)N[C@@H](Cc2ccc(O)cc2)C(=O)N(C)[C@@H](C)C(=O)N[C@@H](CC(N)=O)C(=O)N2CCC[C@H]2C(=O)N[C@@H](CN)C(=O)N[C@@H](CCC(N)=O)C(=O)N2C[C@H](O)C[C@H]2C(=O)N[C@@H](Cc2c[nH]c3ccccc23)C(=O)N[C@@H](CO)C(=O)N[C@@H](Cc2c[nH]c3ccccc23)C(=O)N1C [Example 5208] ({CH2CO}-Y[NMeA]NP[Dap]Q[Hyp]WSW[NMeNle][NMeNle]ECG-NH2; thioether N-14)
2,1 to 9.9 nM,CCCC[C@H]1C(=O)N(C)[C@@H](CCCC)C(=O)N[C@@H](CN)C(=O)N[C@H](C(=O)NCC(N)=O)CSCC(=O)N[C@@H](Cc2ccc(O)cc2)C(=O)N(C)[C@@H](C)C(=O)N[C@@H](CC(N)=O)C(=O)N2CCC[C@H]2C(=O)N[C@@H](CN)C(=O)N[C@@H](CCC(N)=O)C(=O)N2C[C@H](O)C[C@H]2C(=O)N[C@@H](Cc2c[nH]c3ccccc23)C(=O)N[C@@H](CCN)C(=O)N[C@@H](Cc2cn(CC(=O)O)c3ccccc23)C(=O)N1C [Example 5213] ({CH2CO}-Y[NMeA]NP[Dap]Q[Hyp]W[Dab][Trp(1-CH2COOH)][NMeNle][NMeNle][Dap]CG-NH2; thioether N-14)
3,1 to 9.9 nM,CCCC[C@H]1C(=O)N(C)[C@@H](CCCC)C(=O)N[C@@H](CCC(=O)O)C(=O)N[C@H](C(=O)NCC(N)=O)CSCC(=O)N[C@@H](Cc2ccc(O)cc2)C(=O)N(C)[C@@H](C)C(=O)N[C@@H](CC(=O)O)C(=O)N2CCC[C@H]2C(=O)N[C@@H](CO)C(=O)N[C@@H](CCC(N)=O)C(=O)N2C[C@H](O)C[C@H]2C(=O)N[C@@H](Cc2c[nH]c3ccccc23)C(=O)N[C@@H](CO)C(=O)N[C@@H](Cc2c[nH]c3ccccc23)C(=O)N1C [Example 5214] ({CH2CO}-Y[NMeA]DPSQ[Hyp]WSW[NMeNle][NMeNle]ECG-NH2; thioether N-14)
4,1 to 9.9 nM,CCCC[C@H]1C(=O)N(C)[C@@H](CCCC)C(=O)N[C@@H](CCC(=O)O)C(=O)N[C@H](C(=O)NCC(N)=O)CSCC(=O)N[C@@H](Cc2ccc(O)cc2)C(=O)N(C)[C@@H](C)C(=O)N[C@@H](CC(=O)O)C(=O)N2CCC[C@H]2C(=O)N[C@@H](Cc2c[nH]cn2)C(=O)N[C@@H](CCC(N)=O)C(=O)N2C[C@H](O)C[C@H]2C(=O)N[C@@H](Cc2c[nH]c3ccccc23)C(=O)N[C@@H](CO)C(=O)N[C@@H](Cc2csc3ccccc23)C(=O)N1C [Example 5215] ({CH2CO}-Y[NMeA]DPHQ[Hyp]WS[Bta][NMeNle][NMeNle]ECG-NH2; thioether N-14)
5,1 to 9.9 nM,CCCC[C@H]1C(=O)N(C)[C@@H](CCCC)C(=O)N[C@@H](CCC(=O)O)C(=O)N[C@H](C(=O)NCC(N)=O)CSCC(=O)N[C@@H](Cc2ccc(O)cc2)C(=O)N(C)[C@@H](C)C(=O)N[C@@H](CC(N)=O)C(=O)N2CCC[C@H]2C(=O)N[C@@H](CO)C(=O)N[C@@H](CC(C)C)C(=O)N2C[C@H](O)C[C@H]2C(=O)N[C@@H](Cc2c[nH]c3ccccc23)C(=O)N[C@@H](CCC(=O)O)C(=O)N[C@@H](Cc2c[nH]c3ccccc23)C(=O)N1C [Example 5216] ({CH2CO}-Y[NMeA]NPSL[Hyp]WEW[NMeNle][NMeNle]ECG-NH2; thioether N-14)
6,1 to 9.9 nM,CCCC[C@H]1C(=O)N(C)[C@@H](CCCC)C(=O)NCC(=O)N[C@H](C(=O)NCC(N)=O)CSCC(=O)N[C@@H](Cc2ccc(O)cc2)C(=O)N(C)[C@@H](C)C(=O)N[C@@H](CC(N)=O)C(=O)N2CCC[C@H]2C(=O)NCC(=O)N[C@@H](CCC(N)=O)C(=O)N2C[C@H](O)C[C@H]2C(=O)N[C@@H](Cc2c[nH]c3ccccc23)C(=O)NCC(=O)N[C@@H](Cc2c[nH]c3ccccc23)C(=O)N1C [Example 5219] ({CH2CO}-Y[NMeA]NPGQ[Hyp]WGW[NMeNle][NMeNle]GCG-NH2; thioether N-14)
7,1 to 9.9 nM,CCCC[C@H]1C(=O)N(C)[C@@H](CCCC)C(=O)N[C@@H](CCC(=O)O)C(=O)N[C@H](C(=O)NCC(N)=O)CSCC(=O)N[C@@H](Cc2ccc(O)cc2)C(=O)N(C)[C@@H](C)C(=O)N[C@@H](CC(=O)O)C(=O)N2CCC[C@H]2C(=O)N[C@@H](CO)C(=O)N[C@@H](CCC(N)=O)C(=O)N2C[C@H](O)C[C@H]2C(=O)N[C@@H](Cc2c[nH]c3ccccc23)C(=O)N[C@@H](CCN)C(=O)N[C@@H](Cc2c[nH]c3ccccc23)C(=O)N1C [Example 5221] ({CH2CO}-Y[NMeA]DPSQ[Hyp]W[Dab]W[NMeNle][NMeNle]ECG-NH2; thioether N-14)
8,1 to 9.9 nM,CCCC[C@H]1C(=O)N(C)[C@@H](CCCC)C(=O)N[C@@H](CCC(=O)O)C(=O)N[C@H](C(=O)NCC(N)=O)CSCC(=O)N[C@@H](Cc2ccc(O)cc2)C(=O)N(C)[C@@H](C)C(=O)N[C@@H](CC(N)=O)C(=O)N2CCC[C@H]2C(=O)N[C@@H](Cc2c[nH]cn2)C(=O)N[C@@H](CCC(N)=O)C(=O)N2C[C@H](O)C[C@H]2C(=O)N[C@@H](Cc2c[nH]c3ccccc23)C(=O)N[C@@H](CCN)C(=O)N[C@@H](Cc2c[nH]c3ccccc23)C(=O)N1C [Example 5223] ({CH2CO}-Y[NMeA]NPHQ[Hyp]W[Dab]W[NMeNle][NMeNle]ECG-NH2; thioether N-14)
9,1 to 9.9 nM,CCCC[C@H]1C(=O)N(C)[C@@H](CCCC)C(=O)N[C@@H](CCC(=O)O)C(=O)N[C@H](C(=O)NCC(N)=O)CSCC(=O)N[C@@H](Cc2ccc(O)cc2)C(=O)N(C)[C@@H](C)C(=O)N[C@@H](CC(=O)O)C(=O)N2CCC[C@H]2C(=O)N[C@@H](CN)C(=O)N[C@@H](CCC(=O)O)C(=O)N2C[C@H](O)C[C@H]2C(=O)N[C@@H](Cc2c[nH]c3ccccc23)C(=O)N[C@@H](CCN)C(=O)N[C@@H](Cc2c[nH]c3ccccc23)C(=O)N1C [Example 5224] ({CH2CO}-Y[NMeA]DP[Dap]E[Hyp]W[Dab]W[NMeNle][NMeNle]ECG-NH2; thioether N-14)

# Same assay, conditions: PD-L1-His 10 nM, PD-1-Ig 20 nM; read-out: HTRF Human PD-L1/PD-1 Binding Assay IC50
row,IC50,Compound
1,1000 nM,CCCC[C@H]1C(=O)N(C)[C@@H](CCCC)C(=O)N[C@@H](CN)C(=O)N[C@H](C(=O)NCC(N)=O)CSCC(=O)N[C@@H](Cc2ccc(O)cc2)C(=O)N(C)[C@@H](C)C(=O)N[C@@H](CC(N)=O)C(=O)N2CCC[C@H]2C(=O)N[C@@H](Cc2c[nH]cn2)C(=O)N[C@@H](CCC(N)=O)C(=O)N2C[C@H](O)C[C@H]2C(=O)N[C@@H](Cc2c[nH]c3ccccc23)C(=O)N[C@@H](CCN)C(=O)N[C@@H](Cc2cn(CC(=O)O)c3ccccc23)C(=O)N1C [Example 5222] ({CH2CO}-Y[NMeA]NPHQ[Hyp]W[Dab][Trp(1-CH2COOH)][NMeNle][NMeNle][Dap]CG-NH2; thioether N-14)
